The text below walks through data of ChEMBL document CHEMBL1146747, “Novel lopinavir analogues incorporating heterocyclic replacements of six-member cyclic urea--synthesis and structure-activity relationships” (Bioorg Med Chem Lett, 2004).

For one assay, the system named is MT4. The experiment in a line: Tested for cytopathic effect of HIVIIIB in MT-4 cells in presence of 50% human serum. The format is functional, cell-based.
The target of assay [1] is Human immunodeficiency virus type 1 protease (Human immunodeficiency virus 1) (UniProt Q72874). Kind of assay: Inhibitory activity (0.5 nM) against Protease.

On to `Cc1cccc(C)c1OCC(=O)N[C@@H](Cc1ccccc1)[C@@H](O)C[C@H](Cc1ccccc1)NC(=O)[C@H](C(C)C)N1C(=O)CCC1=O`, for which, in the assay on MT4, the EC50 was found to be 2510 nM. Besides, the inhibition in assay [1] amounted to 58%.
On the same counts, the results for `Cc1cccc(C)c1OCC(=O)N[C@@H](Cc1ccccc1)[C@@H](O)C[C@H](Cc1ccccc1)NC(=O)[C@H](C(C)C)N1CCC(=O)NC1=O` are 140 nM and 100%.
For the compound `Cc1cccc(C)c1OCC(=O)N[C@@H](Cc1ccccc1)[C@@H](O)C[C@H](Cc1ccccc1)NC(=O)[C@H](C(C)C)N1CCNC1=O`, in the assay with MT4, the EC50 was found to be 70 nM. Also, the inhibition in assay [1] worked out at 93%.
Taken in the same sequence, the figures for `Cc1cccc(C)c1OCC(=O)N[C@@H](Cc1ccccc1)[C@@H](O)C[C@H](Cc1ccccc1)NC(=O)[C@H](C(C)C)N1CCNC(=O)C1=O` were 3050 nM and 73%.
On the same counts, the results for `Cc1cccc(C)c1OCC(=O)N[C@@H](Cc1ccccc1)[C@@H](O)C[C@H](Cc1ccccc1)NC(=O)[C@H](C(C)C)N1CCN=C1S` are 3800 nM and 63%.
Taken in the same sequence, the figures for `Cc1cccc(C)c1OCC(=O)N[C@@H](Cc1ccccc1)[C@@H](O)C[C@H](Cc1ccccc1)NC(=O)[C@H](C(C)C)N1CCCN(C)C1=O` were 1060 nM and 80%.
Regarding `Cc1cccc(C)c1OCC(=O)N[C@@H](Cc1ccccc1)[C@@H](O)C[C@H](Cc1ccccc1)NC(=O)[C@H](C(C)C)N1CCCC1=O`, in the assay on MT4, the EC50 was 310 nM. In assay [1], this compound registered an inhibition of 87%.
In the case of `Cc1cccc(C)c1OCC(=O)N[C@@H](Cc1ccccc1)[C@@H](O)C[C@H](Cc1ccccc1)NC(=O)[C@H](C(C)C)N1CCOC1=O`, the EC50 in the assay on MT4 was 110 nM. For the same compound, the inhibition in assay [1] is 87%.
On the same counts, the results for `Cc1cccc(C)c1OCC(=O)N[C@@H](Cc1ccccc1)[C@@H](O)C[C@H](Cc1ccccc1)NC(=O)[C@H](C(C)C)N1CCCOC1=O` are 270 nM and 85%.
As for `Cc1cccc(C)c1OCC(=O)N[C@@H](Cc1ccccc1)[C@@H](O)C[C@H](Cc1ccccc1)NC(=O)[C@H](C(C)C)N1CCCNC1=O` [LOPINAVIR], the EC50 in the assay with MT4 was 100 nM.
